In patent publication US20090221554A1, “METHOD OF TREATING COGNITIVE IMPAIRMENT” (priority 2008, published 2009):

Assays:
[1] = system: cognitive impairment induced by scopolamine; assay: Passive avoidance task, scopolamine-induced cognitive impairment in mice; assay type: in vivo
Protocol: Male mice of the ICR strain (Charles River Laboratories Japan, Inc.) at the ages of 8 to 9 weeks were used in the experiment. They were housed in a cage in group of 3 or 4 mice, in a room maintained at around 22° C. with a 12-h light/dark cycle. Food and water were available ad libitum. All animal care and treatments were conducted in accordance with the Guidelines for the Care and Use of Laboratory Animals established at the Central Research Laboratory, Zenyaku Kogyo Co., Ltd.
Compound 1 and donepezil were suspended in 1% carboxymethyl cellulose (CMC). […] For the coadministration studies of Compound 1 and donepezil, both drug suspensions were mixed together and this mixed suspension was injected. All drugs were prepared immediately before use and orally administered in a volume of 10 ml/kg.
The passive avoidance apparatus (Neuroscience Inc.) consisted of an illuminated chamber and a larger dark chamber. Two chambers were separated by a guillotine door. Oral administration of compound 1 at doses of 0.0001 mg/kg or 0.001 mg/kg and/or donepezil at doses of 0.01 and 0.1 mg/kg was given 60 min before the acquisition trial. […] Matched control group received vehicle only. In the acquisition trial, each mouse was placed in the illuminated chamber. Immediately after the entry into the dark chamber, the door was closed and inescapable scrambled electric shock (100 V, 0.4 mA, 1.5 sec) was delivered through the floor grid. Twenty-four h later, each mouse was placed in the illuminated chamber for retention trial. The interval between the placement in the illuminated chamber and the entry into the dark chamber was measured as step through latency (maximum 300 sec).
P level of <0.05 was considered indicative of statistical significance for the tests.

[2] = system: extracellular level of ACh in the hippocampus; assay: Extracellular level of acetylcholine (ACh) in the rat hippocampus (microdialysis, HPLC-ECD); assay type: in vivo, rats; conditions: vs 1% CMC
Protocol: Food and water were available ad libitum. All animal care and treatments were conducted in accordance with the Guidelines for the Care and Use of Laboratory Animals established at the Central Research Laboratory, Zenyaku Kogyo Co., Ltd.

SMILES: COc1cc2c(cc1OC)C(=O)C(CC1CCN(Cc3ccccc3)CC1)C2 (stereo not shown) [donepezil]
- step-through latency ([1]; donepezil 0.01 mg/kg p.o., scopolamine 1 mg/kg i.p., vs 1% CMC + scopolamine): did not significantly prolong
- step-through latency ([1]; donepezil 0.1 mg/kg p.o., scopolamine 1 mg/kg i.p., vs 1% CMC + scopolamine, P<0.05): prolonged
- extracellular level of ACh in the hippocampus ([2]; donepezil 1 mg/kg p.o.): did not significantly increase

SMILES: CN1[C@@H]2C[C@@H](OC(=O)[C@H](CO)c3ccccc3)C[C@H]1[C@@H]1O[C@@H]12 [scopolamine]
- step-through latency ([1]; 1% CMC + scopolamine 1 mg/kg i.p. vs 1% CMC + saline control, P<0.01): markedly shorter

SMILES: O=C1N=C2C=CC=CN2C12Cc1ccccc1C2 [compound 1, spiro[imidazo[1,2-a]pyridin-2(3H)-one-3,2′-indan]]
- step-through latency ([1]; compound 1 0.0001 mg/kg p.o. 60 min before acquisition, scopolamine 1 mg/kg i.p., retention trial 24 h, vs 1% CMC + scopolamine): did not significantly prolong
- step-through latency ([1]; compound 1 0.001 mg/kg p.o., scopolamine 1 mg/kg i.p., vs 1% CMC + scopolamine, P<0.05): prolonged
- extracellular level of ACh in the hippocampus ([2]; compound 1 0.001 mg/kg p.o.): did not significantly increase
